Where two headings read alike, the source gives them in different places.
Experiments:
KOR (κ opioid receptor) = molecular target: T1, KOR (κ opioid receptor) (Homo sapiens, UniProt P41145); experiment: KOR radioligand binding ([3H]-U69593, HEK293 cell homogenates); conditions: for inhibition at 10 µM: Percent inhibition at 10,000 nM
T1 construct: expressed in transfected cells; host or cells: HEK293 (stably transfected)

MOR (μ opioid receptor) = molecular target: T2, MOR (μ opioid receptor) (Homo sapiens, UniProt P35372); experiment: MOR radioligand binding ([3H]-DAMGO, HEK293 cell homogenates); conditions: for inhibition at 10 µM: Percent inhibition at 10,000 nM, [3H]-DAMGO
T2 construct: expressed in transfected cells; host or cells: HEK293

DOR (δ opioid receptor) = molecular target: T3, DOR (δ opioid receptor) (Homo sapiens, UniProt P41143); experiment: DOR radioligand binding ([3H]-DADLE, HEK293 cell homogenates); conditions: for inhibition at 10 µM: Percent inhibition at 10,000 nM, [3H]-DADLE
T3 construct: expressed in transfected cells; host or cells: HEK293

RAW macrophages = experiment: NO production (Griess assay), LPS/IFNγ-activated RAW264.7 macrophages; type: cell-based, mouse; conditions: Mus musculus, Macrophage, 24 h
HEPG2 = experiment: Viability assay (CellTiter-Glo), HEPG2; type: cell-based, human; conditions: for Cell viability (%) HEPG2 120 μM: CellTiter-Glo; for toxicity at 120 μM (in words): HepG2, 120 μM
[1] = concentration-dependent, [3H]-U69593, read-out: KOR (Ki)

Cc1noc(-c2ncn3c2[C@@H](C)N=C(c2ccccc2F)c2cc(C4CC4)ccc2-3)n1 [GL-III-63, (R)-5-(8-Cyclopropyl-6-(2-fluorophenyl)-4-methyl-4H-benzo[f]imidazo[1,5-a][1,4]diazepin-3-yl)-3-methyl-1,2,4-oxadiazole]
Ki (KOR (κ opioid receptor)): 678 nM | inhibition at 10 µM (KOR (κ opioid receptor); [3H]-U69593): 78% | inhibition at 10 µM (MOR (μ opioid receptor)): 8% | inhibition at 10 µM (DOR (δ opioid receptor)): 31% | inhibition at 10 µM (RAW macrophages): 13 ± 4% | inhibition at 50 µM (RAW macrophages): 62 ± 12% | Cell viability (%) HEPG2 120 μM (HEPG2): 16 ± 6% | toxicity at 120 μM (in words) (HEPG2): toxic

C[C@H]1N=C(c2ccccn2)c2cc(Br)ccc2-n2cnc(C(=O)O)c21 [GL-II-51]
inhibition at 10 µM (KOR (κ opioid receptor); [3H]-U69593): 11% | inhibition at 10 µM (MOR (μ opioid receptor)): 0% | inhibition at 10 µM (DOR (δ opioid receptor)): 0% | inhibition at 10 µM (RAW macrophages): 0% | Cell viability (%) HEPG2 120 μM (HEPG2): 100 ± 16%

Cc1noc(-c2ncn3c2[C@@H](C)N=C(c2ccccc2F)c2cc(Br)ccc2-3)n1 [GL-III-60, (R)-5-(8-Bromo-6-(2-fluorophenyl)-4-methyl-4H-benzo[f]imidazo[1,5-a][1,4]diazepin-3-yl)-3-methyl-1,2,4-oxadiazole]
Ki (KOR (κ opioid receptor)): 232 nM | inhibition at 10 µM (KOR (κ opioid receptor); [3H]-U69593): 87% | inhibition at 10 µM (MOR (μ opioid receptor)): 26% | inhibition at 10 µM (DOR (δ opioid receptor)): 18% | inhibition at 10 µM (RAW macrophages): 0% | inhibition at 50 µM (RAW macrophages): 39 ± 8% | Cell viability (%) HEPG2 120 μM (HEPG2): 100 ± 11%

C#Cc1ccc2c(c1)C(c1ccccc1F)=N[C@H](C)c1c(-c3nc(C(C)C)no3)ncn1-2 [MP-IV-010, (R)-5-(8-ethynyl-6-(2-fluorophenyl)-4-methyl-4H-benzo[f]imidazo[1,5-a][1,4]diazepin-3-yl)-3-isopropyl-1,2,4-oxadiazole]
IC50 (KOR (κ opioid receptor)): 351 nM | Ki (KOR (κ opioid receptor)): 145 nM | Percent Competition KOR (KOR (κ opioid receptor); PDSP primary screening): 94% | inhibition at 10 µM (KOR (κ opioid receptor); [3H]-U69593): 94% | Percent Competition MOR (MOR (μ opioid receptor); PDSP primary screening): 33% | inhibition at 10 µM (MOR (μ opioid receptor)): 33% | Percent Competition DOR (DOR (δ opioid receptor); PDSP primary screening): 5% | inhibition at 10 µM (DOR (δ opioid receptor)): 5% | inhibition at 10 µM (RAW macrophages): 10 ± 2% | inhibition at 50 µM (RAW macrophages): 63 ± 11% | Cell viability (%) HEPG2 120 μM (HEPG2): 45 ± 7% | toxicity at 120 μM (in words) (HEPG2): to a lesser degree

CCOC(=O)c1ncn2c1[C@@H](C)N=C(c1ccccc1F)c1cc(C3CC3)ccc1-2 [GL-III-42]
Ki (KOR (κ opioid receptor)): 174 nM | inhibition at 10 µM (KOR (κ opioid receptor); [3H]-U69593): 86% | inhibition at 10 µM (MOR (μ opioid receptor)): 0% | inhibition at 10 µM (DOR (δ opioid receptor)): 13% | inhibition at 10 µM (RAW macrophages): 0% | Cell viability (%) HEPG2 120 μM (HEPG2): 100 ± 8%

C#Cc1ccc2c(c1)C(c1ccccc1F)=N[C@@H](C)c1c(-c3cnco3)ncn1-2 [GL-III-78]
Ki (KOR (κ opioid receptor)): 451 nM | inhibition at 10 µM (KOR (κ opioid receptor); [3H]-U69593): 74% | inhibition at 10 µM (MOR (μ opioid receptor)): 10% | inhibition at 10 µM (DOR (δ opioid receptor)): 9% | inhibition at 10 µM (RAW macrophages): 0% | Cell viability (%) HEPG2 120 μM (HEPG2): 100 ± 15%

C[C@H]1N=C(c2ccccc2F)c2cc(Cl)ccc2-n2cnc(C(=O)O)c21 [GL-III-54]
inhibition at 10 µM (KOR (κ opioid receptor); [3H]-U69593): 22% | inhibition at 10 µM (MOR (μ opioid receptor)): 0% | inhibition at 10 µM (DOR (δ opioid receptor)): 0% | inhibition at 10 µM (RAW macrophages): 6 ± 4% | Cell viability (%) HEPG2 120 μM (HEPG2): 93 ± 4%

C#Cc1ccc2c(c1)C(c1ccccc1F)=N[C@H](C)c1c(C(=O)NC)ncn1-2 [MP-III-022]
inhibition at 10 µM (KOR (κ opioid receptor); [3H]-U69593): 80% | Ki (KOR (κ opioid receptor); [1]): 381 nM | inhibition at 10 µM (MOR (μ opioid receptor)): 3% | inhibition at 10 µM (DOR (δ opioid receptor)): 22% | inhibition at 10 µM (RAW macrophages): 9 ± 5% | inhibition at 50 µM (RAW macrophages): 51 ± 7% | Cell viability (%) HEPG2 120 μM (HEPG2): 94 ± 7%

C[C@H]1N=C(c2ccccc2F)c2cc(Br)ccc2-n2cnc(-c3cnco3)c21 [GL-III-36]
Ki (KOR (κ opioid receptor)): 246 nM | inhibition at 10 µM (KOR (κ opioid receptor); [3H]-U69593): 88% | inhibition at 10 µM (MOR (μ opioid receptor)): 0% | inhibition at 10 µM (DOR (δ opioid receptor)): 12% | inhibition at 10 µM (RAW macrophages): 0% | inhibition at 50 µM (RAW macrophages): 58 ± 9% | Cell viability (%) HEPG2 120 μM (HEPG2): 100 ± 9%

C[C@@H]1N=C(c2ccccc2F)c2cc(Br)ccc2-n2cnc(-c3cnco3)c21 [GL-III-76]
Ki (KOR (κ opioid receptor)): 221 nM | inhibition at 10 µM (KOR (κ opioid receptor); [3H]-U69593): 83% | inhibition at 10 µM (MOR (μ opioid receptor)): 3% | inhibition at 10 µM (DOR (δ opioid receptor)): 0% | inhibition at 10 µM (RAW macrophages): 0% | Cell viability (%) HEPG2 120 μM (HEPG2): 90 ± 6%

C#Cc1ccc2c(c1)C(c1ccccc1F)=N[C@H](C)c1c(-c3cnco3)ncn1-2 [GL-III-73]
Ki (KOR (κ opioid receptor)): 449 nM | inhibition at 10 µM (KOR (κ opioid receptor); [3H]-U69593): 74% | inhibition at 10 µM (MOR (μ opioid receptor)): 12% | inhibition at 10 µM (DOR (δ opioid receptor)): 4% | inhibition at 10 µM (RAW macrophages): 1 ± 6% | Cell viability (%) HEPG2 120 μM (HEPG2): 100 ± 9%

C[C@H]1N=C(c2ccccc2F)c2cc(C3CC3)ccc2-n2cnc(C(=O)N(C)C)c21 [GL-III-70]
inhibition at 10 µM (KOR (κ opioid receptor); [3H]-U69593): 68% | Ki (KOR (κ opioid receptor); [1]): 800 nM | inhibition at 10 µM (MOR (μ opioid receptor)): 0% | inhibition at 10 µM (DOR (δ opioid receptor)): 50% | inhibition at 10 µM (RAW macrophages): 2 ± 2% | Cell viability (%) HEPG2 120 μM (HEPG2): 100 ± 5%

C#Cc1ccc2c(c1)C(c1ccccc1F)=N[C@H](C)c1c(-c3nc(C)no3)ncn1-2 [MP-IV-004]
Ki (KOR (κ opioid receptor)): 444 nM | inhibition at 10 µM (KOR (κ opioid receptor); [3H]-U69593): 86% | inhibition at 10 µM (MOR (μ opioid receptor)): 7% | inhibition at 10 µM (DOR (δ opioid receptor)): 10% | inhibition at 10 µM (RAW macrophages): 0% | inhibition at 50 µM (RAW macrophages): 51 ± 7% | Cell viability (%) HEPG2 120 μM (HEPG2): 100 ± 4%

C#Cc1ccc2c(c1)C(c1ccccc1F)=N[C@H](C)c1c(C(=O)NC(C)C)ncn1-2 [GL-III-66]
inhibition at 10 µM (KOR (κ opioid receptor); [3H]-U69593): 63% | Ki (KOR (κ opioid receptor); [1]): 233 nM | inhibition at 10 µM (MOR (μ opioid receptor)): 0% | inhibition at 10 µM (DOR (δ opioid receptor)): 0% | inhibition at 10 µM (RAW macrophages): 6 ± 4% | Cell viability (%) HEPG2 120 μM (HEPG2): 86 ± 8%

C[C@H]1N=C(c2ccccc2F)c2cc(Br)ccc2-n2cnc(C(=O)N(C)C)c21 [GL-III-69]
inhibition at 10 µM (KOR (κ opioid receptor); [3H]-U69593): 75% | Ki (KOR (κ opioid receptor); [1]): 511 nM | inhibition at 10 µM (MOR (μ opioid receptor)): 0% | inhibition at 10 µM (DOR (δ opioid receptor)): 10% | inhibition at 10 µM (RAW macrophages): 0% | Cell viability (%) HEPG2 120 μM (HEPG2): 88 ± 5%

CCc1noc(-c2ncn3c2[C@@H](C)N=C(c2ccccc2F)c2cc(C4CC4)ccc2-3)n1 [GL-IV-03, (R)-5-(8-Cyclopropyl-6-(2-fluorophenyl)-4-methyl-4H-benzo[f]imidazo[1,5-a][1,4]diazepin-3-yl)-3-ethyl-1,2,4-oxadiazole]
Ki (KOR (κ opioid receptor)): 232 nM | inhibition at 10 µM (KOR (κ opioid receptor); [3H]-U69593): 91% | inhibition at 10 µM (MOR (μ opioid receptor)): 25% | inhibition at 10 µM (DOR (δ opioid receptor)): 67% | inhibition at 10 µM (RAW macrophages): 75% | Cell viability (%) HEPG2 120 μM (HEPG2): 39 ± 5% | toxicity at 120 μM (in words) (HEPG2): to a lesser degree

CCNC(=O)c1ncn2c1[C@@H](C)N=C(c1ccccc1F)c1cc(C3CC3)ccc1-2 [GL-III-68]
inhibition at 10 µM (KOR (κ opioid receptor); [3H]-U69593): 88% | inhibition at 10 µM (MOR (μ opioid receptor)): 0% | inhibition at 10 µM (DOR (δ opioid receptor)): 10% | inhibition at 10 µM (RAW macrophages): 5 ± 1% | Cell viability (%) HEPG2 120 μM (HEPG2): 83 ± 2%

CCOC(=O)c1ncn2c1[C@@H](C)N=C(c1ccccn1)c1cc(Br)ccc1-2 [GL-II-06]
inhibition at 10 µM (KOR (κ opioid receptor); [3H]-U69593): 79% | Ki (KOR (κ opioid receptor); [1]): 401 nM | inhibition at 10 µM (MOR (μ opioid receptor)): 11% | inhibition at 10 µM (DOR (δ opioid receptor)): 9% | inhibition at 10 µM (RAW macrophages): 4 ± 2% | Cell viability (%) HEPG2 120 μM (HEPG2): 89 ± 5%

Reference: US20240279232A1, “USE OF SUBSTITUTED 5-(4-METHYL-6-PHENYL-4H-BENZO[F]IMIDAZO[1,5-A][1,4] DIAZEPIN-3-YL)-1,2,4-O[…] THE TREATMENT OF INFLAMMATORY CONDITIONS” (priority 2021, published 2024)
